Test results reported in US20090148506A1, “LIPOSOMAL FORMULATIONS COMPRISING SECONDARY AND TERTIARY AMINES AND METHODS FOR PREPARING THEREOF” (priority 2005, published 2009).
“Also recorded” adds a separate entry of the source.

Legend:
Type in all cases: physicochemical
[1] = Liposomal drug loading (encapsulation) at 50° C., Sephadex G-50 spin column, UV assay; details: for liposomal encapsulation (result in words): 50° C. (FIG. 2); for increase of irinotecan/lipid molar ratio: TEA containing liposomes (FIG. 10); for irinotecan encapsulation efficiency: 50° C.
Experimental: The lipids were labeled with trace amounts of ^3H-cholesteryl hexadecyl ether, a non-exchangeable, non-metabolizeable lipid marker to allow liposome quantitation by scintillation counting. The solvent was evaporated under a stream of nitrogen and dried under vacuum for at least 4 hours. […] The mean size distribution of the resulting large unilamellar vesicles (80-120 nm) was determined using a Nicomp submicron particle sizer model 370 (Nicomp, Santa Barbara, Calif.). For irinotecan loading, the solutions of irinotecan were made by dissolving the drug either in water at 50° C. or in sucrose phosphate buffer (300 mM sucrose, 40 mM phosphate) at room temperature. When necessary, the pH of the solution was adjusted to the desired value using NaOH. The final concentration of irinotecan was 15 mM. […] The precipitate was isolated by centrifugation (12000 rpm, 15 min) and was solubilized with 2 mM EDTA in water. Similar preparations were employed for daunorubicin. For liposomal loading, the drug solution and the liposomes were incubated separately at 50° C. for approximately five minutes to equilibrate the temperature. […] Aliquots of 75 μl were applied to a Sephadex G-50 spin column. The columns were prepared by adding glass wool to a 1 ml syringe and Sephadex G-50 beads hydrated in sucrose phosphate buffer (300 mM sucrose, 40 mM phosphate, pH 7.0). The columns were packed by spinning at 290×g for 1 minute. Following addition of the sample to the column, the liposome fraction was collected in the void volume by centrifuging at 515×g for 1 minute. Aliquots of the spin column eluant and the pre-column solution were taken and analyzed by liquid scintillation counting to determine the lipid concentration at each time point. The irinotecan concentration in each liposomal fraction was determined using a UV-based assay. […] The samples were cooled to ambient temperature. The absorbance at 370 nm was measured and compared to a standard curve. The concentration of TEA was determined by HPLC.

[2] = Irinotecan loading into diethanolamine buffered liposomes at 50° C.; details: 100 mM copper gluconate/140 mM diethanolamine pH 7.0 inside, sucrose/phosphate/EDTA buffer outside, target drug to lipid ratio 0.1 (FIG. 13)
Experimental: DSPC, cholesterol and DSPG were weighed out into capped scintillation vials. DSPC was dissolved in chloroform at 60 mg/ml, cholesterol was dissolved in chloroform at 25 mg/ml, and DSPG was dissolved in chloroform:methanol:water (50/10/1) at 30 mg/ml. The lipids were then combined in the appropriate proportions. […] A stream of N2 gas, while heating the mixture, was used to remove solvent. The resulting lipid films were left under vacuum for a few minutes, then redissolved in chloroform. The drying process was then repeated, and the lipid films were allowed to dry on a vacuum pump for 4+hours. […] MLVs were extruded at 70° C. through two 100 nm filters for a total of eight passes without difficulty. The liposomes were then allowed to cool down to room temperature. Samples were buffer exchanged into 300 mM sucrose/20 mM phosphate/10 mM EDTA, pH 7.0 by tangential flow. […] Clinical material of Irinotecan was used for a Irinotecan stock. Drug and liposome samples were pre-heated separately at 50° C. for 5 minutes, then combined at t=0. […] Samples of the spun column eluant and the pre-column solution were counted by liquid scintillation counting to determine the lipid concentration at each time point. Irinotecan concentrations were determined using a UV assay. […] Irinotecan is quantitated by absorbance at 370 nm against a standard curve.

[3] = Lactone/carboxylate form of irinotecan in solution (FTIR, HPLC)
From the text: FTIR measurements were made at room temperature in transmission mode using a Nicolet Nexus 870 spectrometer (Nicolet Instrument, Madison, Wis., USA) equipped with a liquid nitrogen-cooled mercury cadmium telluride detector. […] Inc. Buena, N.J.). The sample was dried with a stream of nitrogen and left overnight in a desiccator before recording the spectra. For each spectrum, 250 scans were co-added at a 4 cm^−1 resolution, using a Happ-Genzel apodization. Data analysis was done using the Grams AI software (Galactic Industries, Salem, N.H., USA). The second derivative of the spectra was performed to determine the frequency of the components of unresolved bands. Vibrational spectroscopy was used to further investigate the potential interaction between irinotecan and copper in free solution. […] Since irinotecan has several possible binding sites, tentative assignment of the bands of the spectra to its functional groups was performed in order to identify which group is involved in an interaction with copper gluconate/TEA. The C═O stretching absorption bands appear in the region of 1870-1540 cm^−1. The position of the carbonyl bands is affected by several factors including intermolecular and intramolecular hydrogen bonding. […] This conversion to the carboxylate form was confirmed by HPLC analysis. […]

Row | SMILES | liposomal encapsulation (result in words) ([1]; triethanolamine hydrochloride internal solution, pH 7.0) | liposomal encapsulation (result in words) ([1]; triethanolamine/sodium gluconate/HCl internal solution, pH 7.0) | liposomal loading (result in words) ([1]; TEA buffered internal solution pH 7.0, external phosphate buffer pH 7.0, 50° C. (FIG. 1)) | increase of irinotecan/lipid molar ratio ([1]; after 2 min at 50° C.) | increase of irinotecan/lipid molar ratio ([1]; after 60 min at 50° C.) | irinotecan encapsulation efficiency ([1]; copper gluconate/TEA containing liposomes (100 mM copper gluconate/180 mM TEA, pH 7.0)) | irinotecan concentration inside the liposomes upon encapsulation ([1]; intra-liposomal) | irinotecan encapsulation efficiency ([1]; liposomes containing 10 mM sodium gluconate/180 mM TEA, pH 7.0) | irinotecan encapsulation efficiency ([1]; liposomes containing TEA/phosphate buffer (150 mM TEA, 95 mM phosphate, pH 7.0), 0.2:1 drug to lipid (mol:mol)) | drug loading (result in words) ([1]; liposomes containing copper gluconate adjusted to pH 7.0 with NaOH (no TEA)) | drug encapsulation (result in words) ([1]; liposomes containing sucrose phosphate buffer (no TEA)) | reduction of the amount of drug loading ([1]; liposomes with 100 mM copper gluconate, TEA decreased to 90 mM, pH 7.0 (FIG. 11)) | irinotecan encapsulation ([1]; liposomes with 100 mM copper gluconate, TEA increased to 270 mM, pH 7.0 (FIG. 11)) | liposomal encapsulation (result in words) [2] | form of irinotecan in solution ([3]; pH 7.0 (data not shown)) | form of irinotecan in solution ([3]; pH 8.7, confirmed by HPLC)
1 | COc1cccc2c1C(=O)c1c(O)c3c(c(O)c1C2=O)C[C@@](O)(C(C)=O)C[C@@H]3O[C@H]1C[C@H](N)[C@H](O)[C@H](C)O1 [daunorubicin] | successfully encapsulated | successfully encapsulated | – | – | – | – | – | – | – | – | – | – | – | – | – | –
2 | CCc1c2c(nc3ccc(OC(=O)N4CCC(N5CCCCC5)CC4)cc13)-c1cc3c(c(=O)n1C2)COC(=O)[C@]3(O)CC [irinotecan] | – | – | successfully loaded | 0.08 μmol irinotecan/μmol lipid | 0.13 μmol irinotecan/μmol lipid | approximately 70% | > 50 mM | 70% | approximately 70% | negligible; also recorded: no loading | no drug encapsulation | 50% | approximately 90% | successfully encapsulated | predominantly in its lactone form | primarily in the carboxylate form
